The values below come from patent US10253085B2, “CD31 peptides for the treatment of thrombotic or autoimmune disorders” (INSERM (INSTITUT NATIONAL DE LA SANTE ET DE LA RECHERCHE …, priority 2008, dated 2019).

Residues, ends and D or L forms follow the SMILES beside them.

Assay [1] has as its system spleen cells from C57Bl/6 (CD31^+/+) mice. Kind of assay: Proliferation in response to TCR stimulation, CD31+/+ spleen cells. It is filed as cell-based, mouse. Conditions: peptide 25, 50, 100 μM, scramble peptide 100 μM. How it is done: CD8^+ T cell-mediated cytolytic activity against allogeneic mouse aortic smooth muscle cells and measurement of macrophage gelatinase (MMP-2/9) activity were performed as previously described for human cells in Caligiuri et al. (2006 Arterioscler Thromb Vasc Biol 26:618-623) using kits and reagents from Invitrogen. Briefly, primary cultures of FVB/N mouse aorta smooth muscle cells were labelled with the lipophylic tracer DIO (green) and co-cultured for 3 hours with CD8+ T cell-enriched spleen cells from C57Bl/6 mice (n=3 scramble peptide and n=3 peptide 551-574, 50 μM). Cytolysis was evaluated by intracellular accumulation of propidium iodide (PI). Cells were analysed by flow cytometry and the % of cytolysis was calculated by expressing the number of dead (PI+) cells among the target (DIO+) cells. Intracellular MMP-2/9 (gelatinase) activity was measured by flow cytometry in 7-day bone-marrow derived macrophages from C57Bl/6 mice (n=3 scramble peptide and n=3 peptide 551-574, 50 μM) three hours after the incorporation of OregonGreen® gelatine (MFI). T-cell proliferation was performed using either human peripheral blood mononuclear cells of spleen cells from C57Bl/6 (CD31^+/+) and CD31^−/− mice (Charles River France) as previously described (Caligiuri et al. 2005 Arterioscler Thromb Vasc Biol 25:1659-1664). Briefly, cells were plated in triplicates at 0.2×10^6 cells/well in a U bottom 96-well plate in complete medium (RPMI 1640, 1% pyruvate, 1% glutamine, 1% penicillin-streptomicyne-fungizone, 10% decomplemented fetal calf serum, all from Invitrogen) containing 1 μg/ml anti-mouse CD3/CD28 or 5 μg/ml anti-human CD3 antibodies (BD) as appropriate. CD31 (551-574) and scramble peptide at 25, 50 and 100 μM final concentration were deposited in the wells just before cell plating. Plated cells were cultured for 72 hours in 5% CO2 at 37° C. (^3H) thymidine (0.5 μCi/well) was added for the last 16 hours and proliferation evaluated using a Tomtec harvester and analysis on a Wallac micro beta counter. Data are expressed as mean±SEM of cpm in triplicates.

Assay [2] deals with Spleen cells from C57Bl/6 mice. Kind of assay: Calcium mobilisation assay in Fluo-3AM-loaded spleen cells. It is filed as cell-based, mouse. To be noted: anti-CD3/CD28, peptide 100 μM; compared with anti-CD31 antibody cross-linking. How it is done:
Spleen cells from C57Bl/6 mice were prepared as described in Caligiuri et al. (2005 Arterioscler Thromb Vasc Biol 25:1659-1664). Cells were incubated with Fluo-3AM (Invitrogen, # F1242) as per the instructions of the manufacturer. Fluorescence of calcium-bound tracer was measured in the FITC channel on an LSRII® cytometer (BD Biosciences) prior to and during 60 seconds following the addition of hamster anti-mouse CD3/CD28 monoclonal antibodies (40 μg/ml each) and rat/hamster compBead® (1:50) either alone or in the presence of rat anti-mouse CD31 antibody (clone 390, 10 μg/ml) or in the presence of CD31 peptide 551-574 (100 μM). Negative controls included rat IgG isotype control and scramble peptide. Antibodies and compBeads® were from BD Biosciences.

The test system of assay [3] is BALB/c mice primed with TNCB. Kind of assay: Delayed type hypersensitivity (DTH) suppression model. It is filed as in vivo, mouse. How it is done:
Delayed type hypersensitivity (DTH) suppression was evaluated as described in the “Current Protocols in Immunology (2001) 4.0.1-4.0.2 Unit 4.2”. Briefly, TNCB (2-chloro-1,3,5-trinitrobenzene, Fluka #79874) was dissolved in acetone/olive oil (1:1 v/v) at a concentration of 10 mg/ml. BALB/c mice (n=6/group) were primed by painting the shaved regions of the abdomen a with a total 0.2 ml of the preparation (n=6/group). The experiment included 3 groups for peptide 551-574 (10, 50, 100 μM) and 1 group treated with scramble peptide at 100 μM). Five days after priming, 10 μl of the TNCB-solvent mixture was painted on the right pinna, 30 minutes after subcutaneous (interscapolar) administration of the peptide 551-574 or the scramble peptide. Ear thickness increases were calculated by subtracting the thickness of the right and the left pinna of each mouse (right-left/left×100), measured at 24 h with a dial caliper (“Pocotest”, Kroeplin Längenmesstechnick). The measure was performed 5 times on each ear and averaged for further analysis. The immunosuppressive effect of the peptide was calculated as % suppression=(1−ΔTE/ΔTS)×100, where ΔT=(ear thickness 24 hr after elicitation)−(baseline ear thickness), […]. Data are expressed as mean±SEM.

The subject of assay [4] is apolipoprotein E^−/− mice. Kind of assay: Angiotensin II infusion into aged apolipoprotein E-/- mice: atherosclerotic lesion size and aneurysm formation. It is filed as in vivo, mouse. How it is done:
Male 28-week old apolipoprotein E^−/− mice (n=8-10 mice/group) from our breeding facility were maintained on a regular chow diet and kept under standard conditions. Acceleration of atherosclerosis and aneurysm formation was induced by subcutaneous angiotensin II (Sigma, #A9525) infusion (1 mg/kg/d) for 28 days using osmotic minipumps (Alzet, #2004) as previously described (Daugherty et al. J Clin Invest 105:1605-1612). All experiments were approved by our institutional Ethical committee. Atherosclerotic lesion size was measured as previously described (Caligiuri et al. 2005 Arterioscler Thromb Vasc Biol 25:1659-1664). These experiments were repeated twice with similar results.

As for `CSCC[C@H](NC(=O)[C@H](CO)NC(=O)[C@@H](N)CO)C(=O)N[C@@H](CCCNC(=N)N)C(=O)N[C@H](C(=O)N[C@@H](CO)C(=O)N1CCC[C@H]1C(=O)N[C@@H](CCCNC(=N)N)C(=O)N[C@@H](CO)C(=O)N[C@@H](CO)C(=O)N[C@H](C(=O)N[C@@H](CC(C)C)C(=O)N[C@@H](C)C(=O)N[C@H](C(=O)N[C@@H](CCCNC(=N)N)C(=O)N[C@H](C(=O)N[C@@H](Cc1ccccc1)C(=O)N[C@@H](CC(C)C)C(=O)N[C@@H](C)C(=O)N1CCC[C@H]1C(=O)N[C@@H](Cc1c[nH]c2ccccc12)C(=O)N[C@@H](CCCCN)C(=O)N[C@@H](CCCCN)C(=O)O)C(C)C)C(C)C)[C@@H](C)O)[C@@H](C)O` [peptide 551-574] (H-SSMRTSPRSSTLAVRVFLAPWKK-OH), the “proliferation of CD31+/+ spleen cells in response to TCR stimulation” value was “inhibits in a dose-dependent manner” in assay [1] and “dose-dependent inhibition” in assay [1] (listed as mouse CD31 peptide 551-574). The “inhibition of TCR-induced calcium mobilization” value in assay [2] was “as an efficient immunoregulatory strategy as it is the co-ligation of CD3 and CD28 with the distal portion of CD31”. In addition, in assay [3] (single subcutaneous administration of 50 μM), the “immunosuppression in DTH model” value is “Effective immunosuppression”. Also, in assay [3] (single subcutaneous administration, peptide 10, 50, 100 μM, scramble 100 μM), the “suppression of distal recall of a hapten-elicited specific immune response (ear thickness)” value was “suppressed in a dose-dependent manner”. Also, in assay [4] (daily subcutaneous administration of 50 μM), the “formation of atherothrombotic abdominal aortic aneurysms (AAA)” value is given as “prevented”. Moreover, in assay [4] (daily subcutaneous administration of 50 μM, 28 days angiotensin II), the “acceleration of plaque growth in the aortic root” value is recorded as “prevented”. Moreover, the “mice with abdominal aortic aneurysm (AAA) present” value in assay [4] (peptide-treated mice, both experiments (Exp #1, Exp #2), controls 8/10 and 6/8) is listed as 1/8.
